This note sets out measurements from patent publication US7897619B2, “Heterocyclic modulators of PKB” (Amgen Inc., priority 2007, dated 2011).

Counter-ions that a name gives are not always drawn.

PKBα, sequence (P31749 118-480 limits assumed): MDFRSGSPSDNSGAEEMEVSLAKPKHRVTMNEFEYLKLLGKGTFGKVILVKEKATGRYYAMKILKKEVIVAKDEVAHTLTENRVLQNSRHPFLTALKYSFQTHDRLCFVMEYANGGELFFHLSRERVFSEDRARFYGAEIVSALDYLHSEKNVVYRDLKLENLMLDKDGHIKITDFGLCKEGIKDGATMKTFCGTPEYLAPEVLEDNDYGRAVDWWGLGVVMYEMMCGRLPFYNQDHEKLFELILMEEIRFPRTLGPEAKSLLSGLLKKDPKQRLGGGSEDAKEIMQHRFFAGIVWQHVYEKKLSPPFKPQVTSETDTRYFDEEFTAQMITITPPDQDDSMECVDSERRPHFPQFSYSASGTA

The test has as its target PKBα (Homo sapiens, UniProt P31749). Briefly: PKB kinase assay (P33-labeled ATP, synthetic peptide substrate, filter plate). Type of test: biochemical. As to conditions: PKBα enzyme (full length or kinase domain with pleckstrin domain deleted). An excerpt: The kinase assay for evaluating PKB activity comprises active PKB enzymes, a PKB specific substrate, and P^33-labeled ATP. Two forms of PKBα enzymes were used, the full length PKBα and a kinase domain of PKBα with pleckstrin domain (amino acids 1-117) deleted. Both PKB enzymes were obtained from Upstate cell signaling solutions (Cat.# 14-276 and 14-341). The PKB substrate used is a synthetic peptide (ARKRERTYSFGHHA (SEQ ID NO: 1)) as described in Obata et al., J. Biol. Chem. 275 (46), 36108-36115 (2000). The phosphorylated substrate was captured by a phosphocellulose membrane filter plate (MILLIPORE) and measured by a Wallac Microbeta liquid scintillation counter (Perkin Elmer). Table 1 provides the IC50 values obtained for each of the examples with respect to PKBα.
In turn, `N[C@H](CCn1cc(-c2ccc3[nH]ncc3c2)nn1)Cc1ccccc1` [Example 39, (2S)-4-(4-(1H-Indazol-5-yl)-1H-1,2,3-triazol-1-yl)-1-phenylbutan-2-amine] yielded an IC50 of 50 to 1000 nM.
The result for `Cc1n[nH]c2ccc(-c3cn(CC[C@@H](N)Cc4ccccc4)nn3)cc12` [Example 40, (2S)-4-(4-(3-Methyl-1H-indazol-5-yl)-1H-1,2,3-triazol-1-yl)-1-phenylbutan-2-amine] reads 1000 to 10000 nM; that for `N[C@H](CNc1cnc(-c2ccc3cnccc3c2)s1)Cc1ccc(C(F)(F)F)cc1` [Example 41, N-((S)-2-Amino-3-(4-(trifluoromethyl)phenyl)propyl)-2-(isoquinolin-6-yl)thiazol-5-amine trifluoroacetate], 50 to 1000 nM; that for `N[C@H](CNc1cnn(-c2ccc3cnccc3c2)c1)Cc1ccc(C(F)(F)F)cc1` [Example 42, N-((S)-2-Amino-3-(4-(trifluoromethyl)phenyl)propyl)-1-(isoquinolin-6-yl)-1H-pyrazol-4-amine], 50 to 1000 nM.
The result for `N[C@H](CNc1nc(-c2ccc3cnccc3c2)ns1)Cc1ccc(C(F)(F)F)cc1` [Example 43, N-((S)-2-Amino-3-(4-(trifluoromethyl)phenyl)propyl)-3-(isoquinolin-6-yl)-1,2,4-thiadiazol-5-amine] reads 50 to 1000 nM.
`N[C@H](CNc1nc(-c2ccc3c(c2)CC(=O)N3)ns1)Cc1ccc(C(F)(F)F)cc1` [Example 44, 5-(5-((S)-2-Amino-3-(4-(trifluoromethyl)phenyl)propylamino)-1,2,4-thiadiazol-3-yl)indolin-2-one] displayed an IC50 of 1000 to 10000 nM.
In turn, `N[C@H](CNc1nc(-c2ccc3[nH]ncc3c2)ns1)Cc1ccc(C(F)(F)F)cc1` [Example 45, N-((S)-2-Amino-3-(4-(trifluoromethyl)phenyl)propyl)-3-(1H-indazol-5-yl)-1,2,4-thiadiazol-5-amine] registered an IC50 of 1000 to 10000 nM.
The compound `N[C@H](CNc1cnn(-c2ccc3cnccc3c2)c1)Cc1ccc(Cl)cc1` [Example 46, N-((S)-2-Amino-3-(4-chlorophenyl)propyl)-1-(isoquinolin-6-yl)-1H-pyrazol-4-amine] displayed an IC50 of 50 to 1000 nM.
For `N[C@H](CNc1nsc(-c2ccc3c(c2)CC(=O)N3)n1)Cc1ccc(C(F)(F)F)cc1` [Example 47, 5-(3-((S)-2-Amino-3-(4-(trifluoromethyl)phenyl)propylamino)-1,2,4-thiadiazol-5-yl)indolin-2-one], the IC50 was 50 to 1000 nM.
Then `N[C@H](CCc1nc(-c2ccc3c(c2)CC(=O)N3)no1)Cc1ccc(C(F)(F)F)cc1` [Example 48, 5-(5-((R)-3-Amino-4-(4-(trifluoromethyl)phenyl)butyl)-1,2,4-oxadiazol-3-yl)indolin-2-one], with 50 to 1000 nM; and `N[C@@H](Cc1ccc(C(F)(F)F)cc1)c1nc(-c2ccc3c(c2)CC(=O)N3)no1` [Example 49, 5-(5-((S)-1-Amino-2-(4-(trifluoromethyl)phenyl)ethyl)-1,2,4-oxadiazol-3-yl)indolin-2-one], with 1000 to 10000 nM.
The result for `N[C@H](CCn1cc(-c2ccc3[nH]c(=O)oc3c2)cn1)Cc1ccc(Cl)cc1` [Example 50, 6-(1-((S)-3-Amino-4-(4-chlorophenyl)butyl)-1H-pyrazol-4-yl)benzo[d]oxazol-2(3H)-one] reads less than 50 nM.
Then `N[C@H](CCn1cc(-c2ccc3c(c2)CC(=O)N3)cn1)Cc1ccc(Cl)cc1` [Example 51, 5-(1-((S)-3-Amino-4-(4-chlorophenyl)butyl)-1H-pyrazol-4-yl)indolin-2-one], with less than 50 nM; and `N[C@H](CCn1cc(-c2ccc3[nH]ncc3c2)cn1)Cc1ccc(Cl)cc1` [Example 52, (2S)-4-(4-(1H-Indazol-5-yl)-1H-pyrazol-1-yl)-1-(4-chlorophenyl)butan-2-amine], with less than 50 nM; and `Cc1n[nH]c2ccc(-c3cnn(CC[C@@H](N)Cc4ccc(Cl)cc4)c3)cc12` [Example 53, (2S)-1-(4-Chlorophenyl)-4-(4-(3-methyl-1H-indazol-5-yl)-1H-pyrazol-1-yl)butan-2-amine], with less than 50 nM.
In turn, `Cn1c(=O)[nH]c2ccc(-c3cnn(CC[C@@H](N)Cc4ccc(Cl)cc4)c3)cc21` [Example 54, 6-(1-((S)-3-Amino-4-(4-chlorophenyl)butyl)-1H-pyrazol-4-yl)-1-methyl-1H-benzo[d]imidazol-2(3H)-one] registered an IC50 of 50 to 1000 nM.
Then `N[C@H](CCn1cc(-c2ccc3cnc(F)cc3c2)cn1)Cc1ccc(Cl)cc1` [Example 55, (2S)-1-(4-Chlorophenyl)-4-(4-(3-fluoroisoquinolin-6-yl)-1H-pyrazol-1-yl)butan-2-amine], with less than 50 nM; and `N[C@H](CCn1cc(-c2ccc3cnccc3c2)cn1)Cc1ccc(Cl)cc1` [Example 56, (2S)-1-(4-Chlorophenyl)-4-(4-(isoquinolin-6-yl)-1H-pyrazol-1-yl)butan-2-amine], with less than 50 nM; and `N[C@H](CCn1cc(-c2ccc3cnccc3c2)cn1)Cc1ccc(C(F)(F)F)cc1` [Example 57, (2S)-4-(4-(Isoquinolin-6-yl)-1H-pyrazol-1-yl)-1-(4-(trifluoromethyl)phenyl)butan-2-amine], with less than 50 nM.
Then `Cc1ccc(C[C@H](N)CCn2cc(-c3ccc4cnccc4c3)cn2)cc1` [Example 58, (2S)-4-(4-(Isoquinolin-6-yl)-1H-pyrazol-1-yl)-1-p-tolylbutan-2-amine], with 50 to 1000 nM.
Then `N[C@H](CCn1cc(-c2ccc3cnccc3c2)cn1)Cc1cccc(Cl)c1` [Example 59, (2S)-1-(3-Chlorophenyl)-4-(4-(isoquinolin-6-yl)-1H-pyrazol-1-yl)butan-2-amine], with 50 to 1000 nM; and `N[C@H](CCn1cc(-c2ccc3cnccc3c2)cn1)Cc1ccc(Cl)c(Cl)c1` [Example 60, (2S)-1-(3,4-Dichlorophenyl)-4-(4-(isoquinolin-6-yl)-1H-pyrazol-1-yl)butan-2-amine], with 50 to 1000 nM.
In turn, `N[C@H](CCn1cc(-c2ccc3cnccc3c2)cn1)Cc1ccc(F)c(F)c1` [Example 61, (2S)-1-(3,4-Difluorophenyl)-4-(4-(isoquinolin-6-yl)-1H-pyrazol-1-yl)butan-2-amine] registered an IC50 of 50 to 1000 nM.
Then `N[C@H](CCn1cc(-c2ccc3cnccc3c2)cn1)Cc1ccc(F)cc1` [Example 62, (2S)-1-(4-Fluorophenyl)-4-(4-(isoquinolin-6-yl)-1H-pyrazol-1-yl)butan-2-amine], with 50 to 1000 nM.
In turn, `N[C@H](CCn1cc(-c2ccc3cnccc3c2)cn1)Cc1ccc(Cl)cc1Cl` [Example 63, (2S)-1-(2,4-Dichlorophenyl)-4-(4-(isoquinolin-6-yl)-1H-pyrazol-1-yl)butan-2-amine] yielded an IC50 of 50 to 1000 nM.
Then `N[C@H](CCn1cc(-c2ccc3cnccc3c2)cn1)Cc1ccccc1` [Example 64, (2S)-4-(4-(Isoquinolin-6-yl)-1H-pyrazol-1-yl)-1-phenylbutan-2-amine], with 50 to 1000 nM; and `N[C@@H](Cc1ccc(C(F)(F)F)cc1)Cn1cc(-c2ccc3cnccc3c2)cn1` [Example 65, (2S)-1-(4-(Isoquinolin-6-yl)-1H-pyrazol-1-yl)-3-(4-(trifluoromethyl)phenyl)-propan-2-amine], with 50 to 1000 nM; and `N[C@H](CCc1nnc(-c2ccc3cnccc3c2)o1)Cc1ccc(C(F)(F)F)cc1` [Example 66, (2R)-4-(5-(Isoquinolin-6-yl)-1,3,4-oxadiazol-2-yl)-1-(4-(trifluoromethyl)phenyl)butan-2-amine], with 50 to 1000 nM.
`N[C@H](CCc1cn(-c2ccc3[nH]ncc3c2)nn1)Cc1ccc(C(F)(F)F)nc1` [Example 67, (2R)-4-(1-(1H-Indazol-5-yl)-1H-1,2,3-triazol-4-yl)-1-(6-(trifluoromethyl)pyridin-3-yl)butan-2-amine bistrifluoroacetate]: the IC50 lay within 50 to 1000 nM.
